Source: patent US20230054563A1, “COMPOSITION AND METHODS OF MANUFACTURE” (Phoenix Eagle Company Pty Ltd, priority 2019, published 2023)
Entries after “also recorded” stand apart in the source; their conditions may differ.

Experiments:
[1] = system: active serine protease in OPAL B filtrate; assay: Serine protease reactivity probe, SDS PAGE western blotting of OPAL B filtrate; format: biochemical, Carica papaya
Excerpt: To establish which of the different bands corresponded to a proteolytically active form of subtilase in the OPAL B filtrate, we used a reactivity probe, which specifically labels active serine proteases via a fluorosulfonate group linked to biotin. This reactivity probe can then be visualized on a regular SDS PAGE gel via western blotting technique, using streptavidin-conjugated enzymes such as alkaline phosphatase. Using this technique allowed the visualization of the active serine protease band inhibited by AEBSF treatment at around 50 kDa as shown in FIG. 11.

[2] = system: proteolytic activity of OPAL B filtrate (cysteine and serine proteases); assay: Effect of protease inhibitors on L-BApNA proteolytic activity of OPAL B filtrate; format: biochemical, Carica papaya; details: inhibitor added to OPAL B filtrate
Method: (§1) A 1.5 mM stock solution of L-BApNA (B-3133 sigma) was prepared by dissolving 63 mg of L-BApNA in 1.5 ml dimethyl sulfoxide (DMSO), and then made up to 100 ml with water. Hydrolysis of the L-BApNA at the bond between the arginine and the p-nitroaniline moieties releases the chromophore p-nitroaniline, which can be detected by spectroscopy at an absorbance of 410 nm in International Units (IU). IU is defined as the amount of enzyme that causes an increase in absorbance of 0.01 units/min under excess substrate conditions (zero order kinetics). Solids specific activity is expressed in IU/mg, while in the case of liquid formulations, the activity is expressed in IU/mL.
(§2) We therefore previously concluded that the protease activity in OPAL A is essentially due only to the presence of active cysteine proteases. To determine the effect of omitting the heat treatment step, the protease activity in both OPAL A and OPAL B filtrates was tested using an L-BApNA assay. After 10 minutes, E-64 inhibitor was added.
To better understand the non-thiol dependent or non-cysteine proteases in the OPAL B filtrate, enzymatic assays were carried out initially using a Protease Inhibitor Cocktail (PIC) (sigma P2714), containing all the essential protease inhibitors (see Table 3).

[3] = system: cysteine protease(s) and serine protease(s) in OPAL B filtrate; assay: Overlay zymography of OPAL B filtrate with L-BApNA membrane, with or without inhibitors; format: biochemical, Carica papaya; details: inhibitor on nitrocellulose membrane; upper band cysteine, lower band serine protease(s)
Method: Overlay-zymography was carried out according to the procedure in Vinokurov et al. (2005) with some modifications (FIG. 1). Briefly, a nitrocellulose membrane was soaked in a 1.2 mg/mL L-BApNA solution in water. The membrane was subsequently left to air dry for 5 minutes and then laid on top of the native PAGE gel after running the samples through, which were slightly soaked in their respective running buffers. Two additional experiments were carried out in which membranes were soaked in […] R-alanine, 0.14 M acetic acid, pH 4.3, with either 10 mM DTT or 25 mM cysteine. All zymographies were then incubated in a closed chamber at 37° C. for 30-60 min. The membrane was removed and again left to dry for 5 minutes and the p-nitroaniline was visualized by diazotization.
Diazotization was performed by following the protocol detailed in Hosseininaveh et al. (2009). […]
OPAL B filtrate appears to be a complex mixture of many proteins. Therefore, to individually visualize the protease activities that were detected by spectrophotometry assays, we used a technique called overlay zymography. […]

[4] = system: cysteine protease activity of OPAL A; assay: Effect of E-64 on protease activity of OPAL A; format: biochemical, Carica papaya; details: previously established, unpublished data
Method: as §2

[5] = L-BApNA proteolytic activity assay (A410); format: biochemical
Method: as §1
To determine the optimal substrate concentration to maintain zero order kinetics throughout experiments, a series of titration runs were carried out with a range of substrate concentrations. The minimum concentration thus found is […] or 1:6 dilution of the stock 1.5 mM solution. […] Phosphate buffer at pH 6 was used in the L-BApNA assays because it gave the highest enzymatic activity reading compared to other buffers.
Hydrolysis of L-BApNA in the presence of protease, at the bond between the arginine and p-nitroaniline moieties, releases the chromophore p-nitroaniline, which can then be detected by spectroscopy at a wavelength of 410 nm. […]

Molecule	effect on active serine protease band at around 50 kDa labelled by reactivity probe [1]	inhibition of L-BApNA proteolytic activity of OPAL B filtrate [2]	inhibition of zymography bands of OPAL B [3]	inhibition of cysteine protease activity of OPAL A [4]	activity of pure latex papain [5]
NCCc1ccc(S(=O)(=O)F)cc1 [AEBSF]	inhibited	able to halt proteolytic activity	inhibition of lower band		
CC(C)C[C@H](NC(=O)[C@H]1C[C@@H]1C(=O)O)C(=O)NCCCCNC(=N)N [E-64, (1S,2S)-2-(((S)-1-((4-Guanidinobutyl)amino)-4-methyl-1-oxopentan-2-yl)carbamoyl) cyclopropane carboxylic acid]		did not result in complete inhibition of activity; also recorded: able to halt proteolytic activity	complete inhibition of upper band	essentially abolished	
pure latex papain: Pure latex papain, reference for specific L-BApNA activity (protein, UniProt P00784 134-345, looked up) Papain: IPEYVDWRQKGAVTPVKNQGSCGSCWAFSAVVTIEGIIKIRTGNLNEYSEQELLDCDRRSYGCNGGYPWSALQLVAQYGIHYRNTYPYEGVQRYCRSREKGPYAAKTDGVRQVQPYNEGALLYSIANQPVSVVLEAAGKDFQLYRGGIFVGPCGNKVDHAVAAVGYGPNYILIKNSWGTGWGENGYIRIKRGTGNSYGVCGLYTSSFYPVKN					around 10 IU/mg
